Measurements reported in ChEMBL document CHEMBL1909046, “DrugMatrix in vitro pharmacology data”.

Experiments:
[1] = target: T1, Alpha-1D adrenergic receptor (Homo sapiens, UniProt P25100); assay type: cell membranes, HEK293, Membrane; conditions: hek293; note: in other assays of this panel Not Active means under 50% inhibition at 10 µM
T1 sequence (P25100 whole entry): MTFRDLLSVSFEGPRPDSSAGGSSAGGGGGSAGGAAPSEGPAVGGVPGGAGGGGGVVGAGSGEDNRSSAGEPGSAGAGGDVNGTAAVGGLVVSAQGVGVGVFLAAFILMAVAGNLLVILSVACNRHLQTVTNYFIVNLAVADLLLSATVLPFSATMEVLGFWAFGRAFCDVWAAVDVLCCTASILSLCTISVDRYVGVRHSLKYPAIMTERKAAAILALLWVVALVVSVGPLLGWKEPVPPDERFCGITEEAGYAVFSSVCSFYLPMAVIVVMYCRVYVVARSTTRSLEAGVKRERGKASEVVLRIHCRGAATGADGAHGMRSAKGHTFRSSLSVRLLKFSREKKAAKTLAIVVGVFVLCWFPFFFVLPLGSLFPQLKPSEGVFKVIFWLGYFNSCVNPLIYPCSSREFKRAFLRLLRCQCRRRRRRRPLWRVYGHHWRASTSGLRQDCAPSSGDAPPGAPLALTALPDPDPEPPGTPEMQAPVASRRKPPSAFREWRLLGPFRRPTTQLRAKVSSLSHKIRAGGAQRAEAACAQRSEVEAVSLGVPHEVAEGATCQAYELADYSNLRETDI

[2] = target: Sodium-dependent dopamine transporter (Homo sapiens, UniProt Q01959); test: DRUGMATRIX: Dopamine Transporter radioligand binding (ligand: [125I] RTI-55); assay type: cell membranes, CHO-K1, Membrane; conditions: cho-k1; Not Active = under 50% inhibition at 10 µM
Sequence of Sodium-dependent dopamine transporter (Q01959 whole entry): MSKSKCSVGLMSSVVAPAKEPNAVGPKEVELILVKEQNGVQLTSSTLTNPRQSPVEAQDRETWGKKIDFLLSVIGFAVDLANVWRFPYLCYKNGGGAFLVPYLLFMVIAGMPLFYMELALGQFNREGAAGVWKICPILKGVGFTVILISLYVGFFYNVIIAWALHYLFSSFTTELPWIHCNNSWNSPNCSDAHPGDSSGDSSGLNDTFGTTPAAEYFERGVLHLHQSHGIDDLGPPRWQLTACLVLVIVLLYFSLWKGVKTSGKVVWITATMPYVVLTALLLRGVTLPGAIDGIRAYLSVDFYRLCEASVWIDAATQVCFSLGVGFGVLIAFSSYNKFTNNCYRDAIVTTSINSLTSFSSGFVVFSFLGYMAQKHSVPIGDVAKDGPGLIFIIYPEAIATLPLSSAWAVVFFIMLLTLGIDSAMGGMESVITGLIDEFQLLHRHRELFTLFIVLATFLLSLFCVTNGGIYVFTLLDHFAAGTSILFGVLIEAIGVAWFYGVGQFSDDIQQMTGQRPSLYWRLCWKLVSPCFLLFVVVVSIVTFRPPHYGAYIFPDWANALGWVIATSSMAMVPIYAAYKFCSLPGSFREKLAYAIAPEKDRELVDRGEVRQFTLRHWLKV

[3] = DRUGMATRIX: GABAA, Chloride Channel, TBOB radioligand binding (ligand: [3H] TBOB); assay type: cell membranes, Rattus norvegicus, Wistar, Cerebral cortex, Membrane; conditions: Not Active = under 50% inhibition at 10 µM
[4] = target: T2, 3-hydroxy-3-methylglutaryl-coenzyme A reductase (Homo sapiens, UniProt P04035); set-up: species or system Escherichia coli;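 note: enzyme inhibition assay of HMG-CoA reductase using radiolabeled [14C]HMG-CoA as substrate; in other assays of this panel Not Active means under 50% inhibition at 10 µM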
T2 sequence (P04035 whole entry): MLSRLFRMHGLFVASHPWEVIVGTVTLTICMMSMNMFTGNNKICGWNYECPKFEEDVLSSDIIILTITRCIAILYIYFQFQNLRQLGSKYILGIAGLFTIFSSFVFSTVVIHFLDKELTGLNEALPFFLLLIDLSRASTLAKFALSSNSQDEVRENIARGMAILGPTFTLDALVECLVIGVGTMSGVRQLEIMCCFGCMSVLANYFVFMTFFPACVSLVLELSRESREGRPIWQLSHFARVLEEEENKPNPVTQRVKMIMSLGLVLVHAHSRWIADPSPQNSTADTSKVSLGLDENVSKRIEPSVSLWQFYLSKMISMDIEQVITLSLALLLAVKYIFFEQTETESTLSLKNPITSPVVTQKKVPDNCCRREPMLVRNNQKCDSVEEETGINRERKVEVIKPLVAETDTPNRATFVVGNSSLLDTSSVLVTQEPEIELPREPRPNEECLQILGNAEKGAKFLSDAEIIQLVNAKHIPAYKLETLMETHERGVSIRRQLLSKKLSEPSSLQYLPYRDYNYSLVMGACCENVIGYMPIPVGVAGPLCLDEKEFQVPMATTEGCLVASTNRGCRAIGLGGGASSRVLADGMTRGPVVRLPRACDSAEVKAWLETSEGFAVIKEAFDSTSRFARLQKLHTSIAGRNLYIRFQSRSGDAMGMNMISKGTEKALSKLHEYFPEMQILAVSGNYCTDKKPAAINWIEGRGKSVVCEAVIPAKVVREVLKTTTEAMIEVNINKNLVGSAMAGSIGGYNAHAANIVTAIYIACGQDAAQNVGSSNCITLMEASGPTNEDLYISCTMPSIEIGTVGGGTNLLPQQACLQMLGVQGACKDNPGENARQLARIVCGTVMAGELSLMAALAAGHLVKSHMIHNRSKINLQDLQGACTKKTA

[5] = DRUGMATRIX: Interleukin IL-1 radioligand binding (ligand: [125I] interleukin 1beta); assay type: cell membranes, Membrane; conditions: nih3t3; Not Active = under 50% inhibition at 10 µM
[6] = DRUGMATRIX: Nicotinic Acetylcholine radioligand binding (ligand: [125I] Epibatidine); assay type: cell membranes, Membrane; conditions: imr-32; Not Active = under 50% inhibition at 10 µM
[7] = target: cGMP-specific 3',5'-cyclic phosphodiesterase (Homo sapiens, UniProt O76074); test: DRUGMATRIX: Phosphodiesterase PDE5 enzyme inhibition (substrate: [3H]cGMP + cGMP); assay type: tissue-based, Platelet; conditions: platelet; Not Active = under 50% inhibition at 10 µM

CS(=O)(=O)c1ccc([C@@H](O)[C@@H](CO)NC(=O)C(Cl)Cl)cc1 [THIAMPHENICOL]
Not Active: IC50 [1] | IC50 [2] | IC50 [3] | Ki [3] | IC50 [4] | IC50 [5] | Ki [5] | IC50 [6] | Ki [6] | IC50 [7]

CCN(CC)CCNC(=O)c1cc(S(C)(=O)=O)ccc1OC [TIAPRIDE]
Not Active: IC50 [1] | IC50 [2] | IC50 [3] | Ki [3] | IC50 [4] | IC50 [5] | Ki [5] | IC50 [6] | Ki [6] | IC50 [7]

Clc1ccccc1CN1CCc2sccc2C1 [TICLOPIDINE]
Not Active: IC50 [1] | IC50 [2] | IC50 [3] | Ki [3] | IC50 [4] | IC50 [5] | Ki [5] | IC50 [6] | Ki [6] | IC50 [7]

NC1CCN(c2nc3c(cc2F)c(=O)c(C(=O)O)cn3-c2ccc(F)cc2F)C1 (stereo not drawn) [TOSUFLOXACIN]
Not Active: IC50 [1] | IC50 [2] | IC50 [3] | Ki [3] | IC50 [4] | IC50 [5] | Ki [5] | IC50 [6] | Ki [6] | IC50 [7]

O=C(Nc1ccc(Br)cc1)c1cc(Br)cc(Br)c1O [TRIBROMSALAN]
Not Active: IC50 [1] | IC50 [2] | IC50 [3] | Ki [3] | IC50 [4] | IC50 [5] | Ki [5] | IC50 [6] | Ki [6] | IC50 [7]

CC(c1cc2ccccc2s1)N(O)C(N)=O (stereo not drawn) [ZILEUTON]
Not Active: IC50 [1] | IC50 [2] | IC50 [3] | Ki [3] | IC50 [4] | IC50 [5] | Ki [5] | IC50 [6] | Ki [6] | IC50 [7]

MANGANESE CHLORIDE ANHYDROUS
Not Active: IC50 [1] | Ki [1] | IC50 [2] | Ki [2] | IC50 [3] | Ki [3] | IC50 [4] | Ki [4] | IC50 [5] | Ki [5] | IC50 [6] | Ki [6] | IC50 [7] | Ki [7]

SODIUM ORTHOVANAD
Not Active: IC50 [1] | Ki [1] | IC50 [2] | Ki [2] | IC50 [3] | Ki [3] | IC50 [4] | Ki [4] | IC50 [5] | Ki [5] | IC50 [6] | Ki [6] | IC50 [7] | Ki [7]
